The text below walks through data of US20150174021A1, “COSMETIC COMPOSITION COMPRISING BENZYLSULFONYL-D-SER-HOMOPHE-(4-AMIDINO-BENZYLAMIDE) AND A POLYALCOHOL” (DSM IP ASSETS B.V., priority 2012, published 2015).

Test [1] concerns the target human plasmin (Homo sapiens, UniProt P00747). The experiment in a line: Inhibition of human plasmin, chromogenic substrate Tos-Gly-Pro-Lys-pNA, Ki according to Dixon. The test is classed as biochemical. How it is done: The measurements were carried out on a microplate reader at 25′C.
(§1) The measurements were carried out on a microplate reader at 25° C. […] The Ki-values for the respective inhibitors were calculated according to Dixon34 using a linear regression proaram. Bz-βAla-Gly-Arg-pNA was used as the substrate for human uPA and Tos-Gly-Pro-Lys-pNA for human plasmin.

The target in test [2] is human uPA (Homo sapiens, UniProt P00749). The experiment in a line: Inhibition of human uPA (urokinase), chromogenic substrate Bz-βAla-Gly-Arg-pNA, Ki according to Dixon. The test is classed as biochemical. How it is done: The measurements were carried out on a microplate reader at 25° C.
as §1

Setting [3] is: comparative inhibitor compositions, 0.1% inhibitor and 99.9% of glycerine 86%, 25° C., pH 8.0, Dixon, read-out: Ki for plasmin inhibition.

The structures appear in SMILES notation. Read-outs that look alike come from different tables or passages of the source.

Sequence of human plasmin (P00747 581-810 limits assumed): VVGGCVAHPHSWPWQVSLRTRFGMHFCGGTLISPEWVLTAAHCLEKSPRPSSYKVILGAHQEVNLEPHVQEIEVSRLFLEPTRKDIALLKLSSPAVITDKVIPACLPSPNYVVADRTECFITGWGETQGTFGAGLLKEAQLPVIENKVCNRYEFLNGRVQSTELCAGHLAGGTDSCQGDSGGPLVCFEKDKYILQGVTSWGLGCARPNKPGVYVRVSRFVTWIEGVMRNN
Sequence of human plasmin (P00747 97-580 partner limits assumed): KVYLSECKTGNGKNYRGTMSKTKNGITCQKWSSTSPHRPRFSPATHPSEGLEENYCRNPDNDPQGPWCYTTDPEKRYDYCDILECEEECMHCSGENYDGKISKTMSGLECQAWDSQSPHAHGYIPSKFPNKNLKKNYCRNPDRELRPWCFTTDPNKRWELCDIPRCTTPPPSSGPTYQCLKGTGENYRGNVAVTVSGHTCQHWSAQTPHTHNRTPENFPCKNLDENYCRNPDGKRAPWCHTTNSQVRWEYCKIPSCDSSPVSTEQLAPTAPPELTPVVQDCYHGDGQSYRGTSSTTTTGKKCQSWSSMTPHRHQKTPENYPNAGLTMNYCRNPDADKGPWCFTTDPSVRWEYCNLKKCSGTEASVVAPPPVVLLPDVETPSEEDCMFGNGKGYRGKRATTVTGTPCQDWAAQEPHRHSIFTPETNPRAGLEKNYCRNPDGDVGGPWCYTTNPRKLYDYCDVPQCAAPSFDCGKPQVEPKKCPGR

As for `CC(NC(=O)C(CO)NS(=O)(=O)Cc1ccccc1)C(=O)NCc1ccc(C(=N)N)cc1` [Benzylsulfonyl-D-Ser-Ala-(4-amidino-benzylamide)], the Ki in test [1] (setting [3]) stood at 540 nM.
Take `N=C(N)c1ccc(CNC(=O)C(CCc2ccccc2)NC(=O)C(CO)NS(=O)(=O)Cc2ccccc2)cc1` [benzylsulfonyl-D-Ser-homoPhe-(4-amidino-benzylamide)]: the inhibition constant Ki in test [2] came to 28 nM; in test [1], 36 nM. For the same compound, the “Ki for plasmin inhibition compared to 3 other 4-amidino benzylamines” value in test [1] (compared to the Gly, Ala and Lys analogues of WO2009/026949) is on record as “an order of magnitude better”.
For the compound `N=C(N)c1ccc(CNC(=O)C(CCCCN)NC(=O)C(CO)NS(=O)(=O)Cc2ccccc2)cc1` [Benzylsulfonyl-D-Ser-Lys-(4-amidino-benzylamide), reference compound], the inhibitory constant (Ki) in test [2] (comparative inhibitor compositions, 0.1% inhibitor and 99.9% of glycerine 86%, 25° C., pH 8.0, Dixon, read-out: Ki for uPA inhibition) amounted to 24 nM; in test [1] (setting [3]), 360 nM.
On to `N=C(N)c1ccc(CNC(=O)CNC(=O)[C@@H](CO)NS(=O)(=O)Cc2ccccc2)cc1` [Benzylsulfonyl-D-Ser-Gly-(4-amidino-benzylamide)], for which, in test [1] (setting [3]), the Ki was determined as 11000 nM.

What is called Ki is a measure of affinity in units of concentration, obtained from inhibition or displacement.
